In paper PMC4904371, “Luteolin inhibits GABAA receptors in HEK cells and brain slices” (Scientific Reports, 2016):

Legend:
α1β2 GABAAR = biological target: T1, α1β2 GABAAR (Rattus norvegicus, UniProt P62813+P63138); experiment: whole-cell patch clamp, inhibition of GABA-evoked current; format: cell-based
T1 construct: gene Gabra1; full-length subunits in pcDNA3.1, co-transfected in HEK293T cells; GFP as separate marker; pentamer

α5β2 GABAAR = biological target: T2, α5β2 GABAAR (Rattus norvegicus, UniProt P19969+P63138); experiment: as above; format: cell-based
T2 construct: gene Gabra5; full-length subunits in pcDNA3.1, co-transfected in HEK293T cells; GFP as separate marker; pentamer
T2 sequence (P19969 26-464): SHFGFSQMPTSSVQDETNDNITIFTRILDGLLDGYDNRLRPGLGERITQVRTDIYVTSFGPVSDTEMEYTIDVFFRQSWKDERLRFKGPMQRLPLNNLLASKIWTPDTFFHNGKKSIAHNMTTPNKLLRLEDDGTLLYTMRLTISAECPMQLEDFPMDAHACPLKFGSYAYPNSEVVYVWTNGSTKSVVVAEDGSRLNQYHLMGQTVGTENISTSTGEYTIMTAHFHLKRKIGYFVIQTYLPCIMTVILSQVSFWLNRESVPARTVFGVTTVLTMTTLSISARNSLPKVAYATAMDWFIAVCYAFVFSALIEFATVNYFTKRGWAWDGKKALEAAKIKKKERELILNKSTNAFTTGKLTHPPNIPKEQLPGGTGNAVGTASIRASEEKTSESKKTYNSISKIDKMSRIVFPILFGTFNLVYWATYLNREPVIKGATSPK
T2 sequence (P63138 26-474): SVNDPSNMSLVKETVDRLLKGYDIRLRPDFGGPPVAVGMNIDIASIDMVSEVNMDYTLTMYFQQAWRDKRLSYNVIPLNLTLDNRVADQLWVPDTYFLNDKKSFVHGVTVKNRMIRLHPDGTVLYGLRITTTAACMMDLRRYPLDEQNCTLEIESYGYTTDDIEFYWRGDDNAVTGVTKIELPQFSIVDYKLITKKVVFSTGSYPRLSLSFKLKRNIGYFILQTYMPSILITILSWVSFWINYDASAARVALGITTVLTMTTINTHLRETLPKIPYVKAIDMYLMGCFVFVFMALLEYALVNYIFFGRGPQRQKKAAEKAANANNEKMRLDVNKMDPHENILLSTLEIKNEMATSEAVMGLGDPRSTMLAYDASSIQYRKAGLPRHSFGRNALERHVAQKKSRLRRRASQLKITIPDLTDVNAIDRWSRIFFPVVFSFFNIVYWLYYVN

T1 sequence (P62813 28-455): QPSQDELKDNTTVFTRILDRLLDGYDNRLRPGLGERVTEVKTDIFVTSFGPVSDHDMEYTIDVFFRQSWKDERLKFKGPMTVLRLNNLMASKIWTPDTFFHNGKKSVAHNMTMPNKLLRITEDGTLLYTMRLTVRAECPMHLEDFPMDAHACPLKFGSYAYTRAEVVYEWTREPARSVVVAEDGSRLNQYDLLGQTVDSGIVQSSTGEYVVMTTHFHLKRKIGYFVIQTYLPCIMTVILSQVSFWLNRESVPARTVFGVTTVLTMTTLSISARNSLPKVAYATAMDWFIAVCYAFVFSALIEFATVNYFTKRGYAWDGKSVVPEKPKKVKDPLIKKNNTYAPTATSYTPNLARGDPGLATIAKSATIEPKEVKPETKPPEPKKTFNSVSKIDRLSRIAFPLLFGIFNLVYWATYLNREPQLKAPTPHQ
T1 sequence (P63138 26-474): as the sequence (P63138 26-474) above

- IC50 (α1β2 GABAAR): 10.8 ± 4.46 µM
- IC50 (α5β2 GABAAR): 25.4 ± 9 µM
SMILES: O=c1cc(-c2ccc(O)c(O)c2)oc2cc(O)cc(O)c12 [luteolin, 2-(3,4-Dihydroxyphenyl)-5,7-dihydroxy-4-chromenone]
